Like-named read-outs stand apart in the source and are kept apart here.
Tests used:
5-HT-1A receptor [1] = molecular target: T1, 5-HT-1A receptor (Rattus norvegicus, UniProt P19327); conditions: subcutaneous injection; cited from earlier work
T1 sequence (P19327 1-422): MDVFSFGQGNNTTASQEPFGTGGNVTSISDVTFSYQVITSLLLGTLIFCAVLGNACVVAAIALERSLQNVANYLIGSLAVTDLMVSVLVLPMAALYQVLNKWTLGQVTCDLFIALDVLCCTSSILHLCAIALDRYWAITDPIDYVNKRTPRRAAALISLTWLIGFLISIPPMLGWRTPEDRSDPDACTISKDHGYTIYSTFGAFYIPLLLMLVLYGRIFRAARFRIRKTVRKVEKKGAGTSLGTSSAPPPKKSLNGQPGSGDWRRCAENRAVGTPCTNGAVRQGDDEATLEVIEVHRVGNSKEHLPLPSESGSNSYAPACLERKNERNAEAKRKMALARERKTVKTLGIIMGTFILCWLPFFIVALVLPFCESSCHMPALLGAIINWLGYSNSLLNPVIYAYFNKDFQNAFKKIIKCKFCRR

5-HT-1A receptor [2] = molecular target: T1, 5-HT-1A receptor; design: host or cells: rat, whole animal (in vivo); conditions: rats; cited from earlier work
rats [3] = assay: Conditioned place preference (CPP) test of drug-induced reinforcement; format: in vivo, rat
Method: A three compartment conditioned place preference (CPP) apparatus with an unbiased design was used to monitor drug-induced reinforcement. The apparatus was made up of transparent plastic Perspex. The compartments were separated by sliding guillotine doors.
The end (preference) compartments (26×26×26 cm each) provided distinct contexts, with one compartment having black horizontal stripes on side walls, the other compartment had vertical black stripes. […] The experiment was conducted in three distinct phases: pre-conditioning, conditioning and post-conditioning.
An animal introduced in the CPP apparatus from the middle compartment and guillotine doors were raised to open. The animal was allowed to explore the entire apparatus for 10 min. Time spent in each compartment was recorded.
The test was carried out on day 13, one day after the last conditioning session, in a drug free state. Each animal was tested only once. As in the pre-conditioning phase, the guillotine doors were removed and rat was given access to the entire apparatus for 10 min. Time spent in ‘Drug’ assigned compartment was monitored.

rats [4] = system: rats
Method: This phase started one day after pre-conditioning phase, animals were randomly assigned to six groups, each containing six animals: (i) buspirone 0 mg/kg+saline, (ii) buspirone 0 mg/kg+morphine, (iii) buspirone 1 mg/kg+saline, (iv) buspirone 1 mg/kg+morphine, (v) buspirone 2 mg/kg+saline and (vi) buspirone 2 mg/kg+morphine injected animals. Over next 12 days (day 1 to day 12) animals went through conditioning (one session per day) in which they were confined to either the horizontal or vertical stripe compartment by raising the respective guillotine door. On day 1, 3, 5, 7, 9 and 11 animals of all groups were injected with saline (1 ml/kg) and placed immediately in the assigned ‘Non-Drug’ compartment for 30 min. After which the animals were kept in their home cages. On every other day, i.e. day 2, 4, 6, 8, 10, and 12 control and test animals were injected with saline, buspirone and/or morphine as assigned above. Immediately after injection the animals were placed in the ‘Drug’ compartment for 30 min. The animals picked from the drug compartment were placed back in their home cages.
Motor behavior was also monitored during conditioning phase. Animals confined to a compartment were moving across the compartment. Activity scores were counted as number of cage crossings for 10 min starting 5 min post injection.

rats [5] = system: rats; remark: listed apart in the source
Method: After post-conditioning the challenge dose of morphine (7.5 mg/kg) was given. The hot plate test was conducted 30 min after challenge dose to measure difference in heat-induced nociception in the six groups. The latency (either jumping or hind-paw licking) and number of licks were monitored for each animal. The temperature of hot plate was kept 52° C. and cutoff time was 30 sec.

rats [6] = conditions: buspirone and apomorphine co-administered to rats; cited from earlier work
monkeys = conditions: cited from earlier work
humans = conditions: cited from earlier work
rats [7] = conditions: fluoxetine with morphine; cited from earlier work
rhesus monkeys = conditions: fluoxetine with morphine; cited from earlier work
[8] = all three doses of morphine vs saline treated animals, FIG. 3

Compound: CCCN(CCC)C1CCc2cccc(O)c2C1 (centres unmarked) [8-OH-DPAT, 8-hydroxy-N,N-dipropyl-2-aminotetralin]
- Analgesic effect (5-HT-1A receptor [1]): produces an analgesic effect
- Anti-nociceptive effects (5-HT-1A receptor [2]): has anti-nociceptive effects

Compound: O=C1CC2(CCCC2)CC(=O)N1CCCCN1CCN(c2ncccn2)CC1 [buspirone]
- Morphine-induced increases in post-conditioning time spent in drug paired compartment (rats [3]; buspirone 1 mg or 2 mg/kg co-administered with morphine 7.5 mg/kg, FIG. 1A): significantly attenuates
- Reinforcing effects of morphine (calculated percentage reinforcement) (rats [3]; buspirone 1 mg or 2 mg/kg co-administered with morphine 7.5 mg/kg, FIG. 1B): do not occur
- Reduction of addiction to morphine (rats [3]; buspirone co-injected animals): more than 90%
- Calculated percentage psychosis like effects of morphine (rats [4]; animals co-treated with buspirone): blocked
- Psychosis like effects of morphine (rats [4]; co-administration of 1 mg/kg buspirone, FIG. 2B): blocked
- Psychosis like effects of morphine (rats [4]; co-administration of 2 mg/kg buspirone, FIG. 2B): attenuated
- Tolerance in motor depressant effects of morphine (rats [4]; co-treated with buspirone 1 mg/kg or 2 mg/kg, FIG. 2A): not produced
- Analgesic effects of morphine (rats [5]; buspirone co-injected animals): potentiated
- Addiction to apomorphine (rats [6]): not produced

Compound: CN(C)CCCN1c2ccccc2CCc2ccc(Cl)cc21 [clomipramine]
- Anti-nociceptive effects of opioids (monkeys): enhances

Compound: CCNC(C)Cc1cccc(C(F)(F)F)c1 (centres unmarked) [fenfluramine]
- Analgesic effects of morphine (humans): increase

Compound: CNCCC(Oc1ccc(C(F)(F)F)cc1)c1ccccc1 (centres unmarked) [fluoxetine]
- Anti-nociceptive effects of morphine (rats [7]): potentiates
- Anti-nociceptive effects of morphine (rhesus monkeys): potentiates
- Analgesic effects of morphine (humans): increase

Compound: CN1CC[C@]23c4c5ccc(O)c4O[C@H]2[C@@H](O)C=C[C@H]3[C@H]1C5 [morphine]
- Post-conditioning time spent in the drug paired compartment (rats [3]; morphine 7.5 mg/kg alone, repeated, FIG. 1A): much higher
- Calculated percentage reinforcement (rats [3]; morphine 7.5 mg/kg alone, FIG. 1B): reinforcing
- Motor activity (rats [4]; 1st and 2nd injection of morphine, FIG. 2A): decrease
- Decreases in motor activity (tolerance in motor depressant effect) (rats [4]; 3rd to 6th administration of morphine, day 6, 8, 10 and 12, FIG. 2A): do not occur
- Psychosis like effects (rats [4]; morphine alone, FIG. 2B): produced psychosis like effects
- Increase in latency time in paw licking, comparison of doses (rats [5]; 7.5 mg/kg vs 5 mg/kg morphine, FIG. 3): greater at 7.5 mg/kg than 5 mg/kg
- Latency time in paw licking (rats [5]; [8]): increase
- Number of licks (rats [5]; [8]): reduced
- Latency time to first lick (rats [5]; repeated morphine treated animals, 30 min after 7.5 mg/kg morphine challenge, FIG. 4): reduced
- Number of licks (rats [5]; repeated morphine treated animals, after morphine challenge, FIG. 4): higher
